Reference: patent US4418068A, “Antiestrogenic and antiandrugenic benzothiophenes” (Eli Lilly and Company, priority 1981, dated 1983)

Key:
[1] = system: estrogenic response; experiment: Estrogenic Response Test, immature rats (uterine weight); type: in vivo, immature 40-45 g. female rats
Method: (§1) The first test reported below is used to determine the estrogenic potency of compounds. It is well known that many compounds having antiestrogenic activity also, typically, have estrogenic activity. As has been explained, estrogenic activity is a liability in an antiestrogen, and thus it is important to identify antiestrogens having a minimum amount of estrogenic activity. This test was conducted with immature 40-45 g. female rats, immature 11-13 g. mice, and adult ovariectomized mice. The rats were tested in groups of six, and mice in groups of ten. All of the laboratory animals were from standardized strains and were equilibrated to the laboratory before the test started. Each test was begun by administering the test compound daily for three days, as a subcutaneous injection or by oral gavage, as indicated below in the reports of individual experiments. Untreated control animals were included in each experiment, along with animals to which estradiol was administered subcutaneously. The estradiol-treated animals provided positive controls, showing the physiological effect of a potent estrogen on the individual group of animals used in the experiment. […] The test animals were treated for three days and sacrificed on the fourth day, and the uteri were removed, freed of extraneous tissue, and blotted with paper towels. The uteri were weighed to the nearest 0.1 mg. The tables below report the results of representative experiments. The doses of estradiol and of the compound of this invention are given as the total of the three daily doses. The uterine weights are given, in mg., as the means of all of the organ weights of the animals in a group. Compounds are referred to by their example numbers above.

[2] = system: estrogenic response; experiment: Estrogenic Response Test, immature mice (uterine weight); type: in vivo, immature 11-13 g. mice; conditions: Experiment D, s.c.
Method: as §1

[3] = system: estrogenic response of estradiol; experiment: Antiestrogenic Test, mature ovariectomized mice (uterine weight); type: in vivo, adult ovariectomized mice; conditions: Experiment A, s.c. + estradiol 0.3 mcg.
Method: (§2) This test was conducted with immature 40-45 g. female rats, immature 11-13 g. mice, and adult ovariectomized mice. The rats were tested in groups of six, and mice in groups of ten. All of the laboratory animals were from standardized strains and were equilibrated to the laboratory before the test started. Each test was begun by administering the test compound daily for three days, as a subcutaneous injection or by oral gavage, as indicated below in the reports of individual experiments.
(§3) The test animals were treated for three days and sacrificed on the fourth day, and the uteri were removed, freed of extraneous tissue, and blotted with paper towels. The uteri were weighed to the nearest 0.1 mg.
(§4) The uterine weights are given, in mg., as the means of all of the organ weights of the animals in a group. Compounds are referred to by their example numbers above.
(§5) The same standardized types of laboratory animals which were used in the experiments described above were also used in these experiments. […] Untreated control animals were used in each experiment. […] The dosage and sacrifice schedule, and the method of determining uterine weights and reporting data, were the same as the methods described above under Test 1.

[4] = system: estrogenic response of estradiol; experiment: Antiestrogenic Test, immature rats (uterine weight); type: in vivo
Method: as §2, §3, §4, §5

[5] = system: estrogenic response; experiment: Regression Test: reversal of established estrogenic response (uterine weight); type: in vivo, immature rats; conditions: estradiol 0.1 mcg./day 3 days
Method: The following test was carried out to determine if the compounds of this invention could reverse an estrogenic response, when administration of the compound was started after the estrogenic response had become established.
The test animals were immature rats, and all administrations were by subcutaneous injection.
The mean uterine weights of these groups of animals, respectively, were 97.9, 97.3, 119.9 and 112.3 mg.
The animals were sacrificed on the fifth day and their mean uterine weight was 56.4 mg.
The animals were sacrificed on the seventh day and their mean uterine weight was 57.0 mg.

[6] = system: DMBA-induced mammary tumors; experiment: Tests Against DMBA-Induced mammary tumors; type: in vivo, adult female virgin rats
Source text: Mammary tumors were induced in adult female virgin rats by a single 20-mg. oral dose of 7,12-dimethylbenzanthracene. Within about six weeks, visible and palpable tumors were present in the mammary tissue of the rats, and the rats were allocated into treatment and control groups in such a way that each group contained animals having approximately the same size and number of tumors. The size of the tumors was estimated by measuring their cross-sectional area. […]
[…] The treated animals received 1 mg./kg. per day of 6-methoxy-2-(4-hydroxyphenyl)-3-[4-(2-piperidinoethoxy)benzoyl]benzo[b]thiophene, hydrochloride, as a subcutaneous injection in corn oil. The animals were not ovariectomized at the end of the experiment.

[7] = Experiment B, 20 mg./kg./day, orally, four weeks
[8] = Experiment C, low dose 20 mg./kg./day, four weeks

O=C(c1ccc(OCCN2CCCCC2)cc1)c1c(-c2ccc(O)cc2)sc2cc(O)ccc12 [Example 3, 6-hydroxy-2-(4-hydroxyphenyl)-3-[4-(2-piperidinoethoxy)benzoyl]benzo[b]thiophene]
Uterine weight ([1]; Experiment A, total dose 3 mg., s.c.): 33.9 mg
Uterine weight ([1]; Experiment A, total dose 3 mcg., s.c.): 47.7 mg
Uterine weight ([1]; Experiment A, total dose 30 mcg., s.c.): 38.4 mg
Uterine weight ([1]; Experiment A, total dose 300 mcg., s.c.): 35.9 mg
Uterine weight ([1]; Experiment B, total dose 3 mcg., oral (first line)): 34.5 mg
Uterine weight ([1]; Experiment B, total dose 30 mcg., oral): 34.4 mg
Uterine weight ([1]; Experiment B, total dose 300 mcg., oral): 33.2 mg
Uterine weight ([1]; Experiment B, total dose printed 3 mcg., oral (last line)): 34.4 mg
Uterine weight ([2]; total dose 3 mg.): 14.6 mg
Uterine weight ([2]; total dose 0.03 mcg.): 19.0 mg
Uterine weight ([2]; total dose 0.3 mcg.): 19.3 mg
Uterine weight ([2]; total dose 3 mcg.): 22.9 mg
Uterine weight ([2]; total dose 30 mcg.): 23.9 mg
Uterine weight ([2]; total dose 300 mcg.): 19.3 mg
Uterine weight ([3]; 3 mg.): 21.3 mg
Uterine weight ([3]; 0.3 mcg.): 54.9 mg
Uterine weight ([3]; 3 mcg.): 48.7 mg
Uterine weight ([3]; 30 mcg.): 31.1 mg
Uterine weight ([3]; 300 mcg.): 22.1 mg
Uterine weight ([4]; Experiment C, 3 mg., oral + estradiol 0.3 mcg., s.c.): 30.6 mg
Uterine weight ([4]; Experiment C, 3 mcg., oral + estradiol 0.3 mcg., s.c.): 55.0 mg
Uterine weight ([4]; Experiment C, 30 mcg., oral + estradiol 0.3 mcg., s.c.): 46.7 mg
Uterine weight ([4]; Experiment C, 300 mcg., oral + estradiol 0.3 mcg., s.c.): 31.3 mg
Uterine weight ([4]; Experiment D, 3 mg., s.c. + estradiol 0.3 mcg.): 28.0 mg
Uterine weight ([4]; Experiment D, 3 mcg., s.c. + estradiol 0.3 mcg.): 53.6 mg
Uterine weight ([4]; Experiment D, 30 mcg., s.c. + estradiol 0.3 mcg.): 33.7 mg
Uterine weight ([4]; Experiment D, 300 mcg., s.c. + estradiol 0.3 mcg.): 30.7 mg
Uterine weight ([4]; Experiment E, 3 mg., s.c. + estradiol 0.09 mcg.): 31.0 mg
Uterine weight ([4]; Experiment E, 3 mcg., s.c. + estradiol 0.09 mcg.): 42.5 mg
Uterine weight ([4]; Experiment E, 30 mcg., s.c. + estradiol 0.09 mcg.): 35.8 mg
Uterine weight ([4]; Experiment E, 300 mcg., s.c. + estradiol 0.09 mcg.): 33.7 mg
Uterine weight ([4]; Experiment F, 3 mg., s.c. + estradiol 0.15 mcg.): 36.2 mg
Uterine weight ([4]; Experiment F, 3 mcg., s.c. + estradiol 0.15 mcg.): 49.4 mg
Uterine weight ([4]; Experiment F, 30 mcg., s.c. + estradiol 0.15 mcg.): 40.9 mg
Uterine weight ([4]; Experiment F, 300 mcg., s.c. + estradiol 0.15 mcg.): 36.5 mg
Uterine weight ([4]; Experiment G, 3 mg., s.c. + estradiol 3 mcg.): 30.2 mg
Uterine weight ([4]; Experiment G, 3 mcg., s.c. + estradiol 3 mcg.): 71.9 mg
Uterine weight ([4]; Experiment G, 30 mcg., s.c. + estradiol 3 mcg.): 42.2 mg
Uterine weight ([4]; Experiment G, 300 mcg., s.c. + estradiol 3 mcg.): 33.7 mg
Uterine weight ([4]; Experiment H, 3 mg., s.c. + estradiol 30 mcg.): 33.1 mg
Uterine weight ([4]; Experiment H, 3 mcg., s.c. + estradiol 30 mcg.): 92.7 mg
Uterine weight ([4]; Experiment H, 30 mcg., s.c. + estradiol 30 mcg.): 60.2 mg
Uterine weight ([4]; Experiment H, 300 mcg., s.c. + estradiol 30 mcg.): 48.9 mg
mean uterine weight ([5]; then estradiol + 1 mg. compound s.c. on following five days, sacrificed ninth day): 50.7 mg
mean uterine weight ([5]; then estradiol + 1 mg. compound s.c. on following three days, sacrificed seventh day): 57.0 mg
mean uterine weight ([5]; then estradiol + 1 mg. compound s.c. on fourth day, sacrificed fifth day): 56.4 mg
average total cross-sectional area of tumor ([6]; Experiment A, oral 0.1, 5, 10, 20 mg./kg./day in successive two-week periods, 8 weeks): 345 square millimeters
total cross-sectional area of tumor, lower end of range ([6]; Experiment A, oral, 8 weeks): complete regression
total cross-sectional area of tumor, upper end of range ([6]; Experiment A, oral, 8 weeks, one animal, tumors not estrogen-dependent): ≤ 1550 sq. mm.
animals with completely regressed tumors [6, 7]: one of the compound-treated animals had completely regressed
average total tumor area [6, 7]: 152 square millimeters
growth of the large tumor (668 square millimeters) ([6]; Experiment B, 20 mg./kg./day, orally, since second week, shrank after ovariectomy): its growth had been checked, and it had not significantly grown
average tumor area ([6]; Experiment C, high dose 40 mg./kg./day, four weeks): 304 square millimeters
average cross-sectional tumor area [6, 8]: 441 square millimeters
tumor area, lower end of range [6, 8]: no tumors present
tumor area, upper end of range [6, 8]: ≤ 1907 square millimeters
